The supplement of paper PMC11208160

test: recombinant barcode read abundance after kanamycin selection (control-corrected) (log10(CPM+1)); higher = more efficient recombination; sequences stand for … in AGTGCAGAGAAAATCGGCCAGTTTTCTCTGCCTGCAGTCCGCATGCCGT…AGATTTATGCAGCGGACTGCCTTTCTCCCAAAGTGATAAACCGGACAGTATCATGGACCGGTTTTCCCGGTAATCCGTATTTGCAAGGTTGGTTTCACT; site = the 11-nt target
Method in brief: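 In a pooled screen in E. coli, targets were paired with target-binding loops of the IS621 bridge RNA. Each oligo carried a promoter, a target, a barcode and the first 104 bridge RNA bases driven by J23119, and was Gibson-cloned into a vector holding the remaining 73 bp and a T7-inducible recombinase before co-electroporation with a donor plasmid. Duplicate platings went onto chloramphenicol/ampicillin LB agar as the control or onto chloramphenicol/ampicillin/kanamycin with 0.1 mM IPTG. Recombination efficiency is the averaged, control-corrected count per million of barcodes at recombinant junctions, given as log10(CPM+1).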
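Note: IS621 recombinase and bridge RNA in Escherichia coli cells.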

| Sequence | recombinant barcode read abundance (log10) |
| --- | --- |
| TCTTCGACTTGGGTTCTAACCTGTTGCAG (site TCTTCGACTCT) | 0.111 |
| TCTTTACCTTGGGTTCTAACCTGTTGCCT (site ACTTTACCTAG) | 0.146 |
| TCTTTACCTTGGGTTCTAACCTGTTGCCT (site CCTTTACCTAG) | 0.182 |
| TCTTTACCTTGGGTTCTAACCTGTTGCCT (site GCTTTACCTAG) | 0.043 |
| TCTTTACCTTGGGTTCTAACCTGTTGCCT (site TCTTTACCTAG) | 0.0757 |
| TGAAATCCTTGGGTTCTAACCTGTTGCCT (site GGATATCCTAG) | 0.848 |
| TGAAATCCTTGGGTTCTAACCTGTTGCCT (site TGAAATCCTAG) | 0.304 |
| TGAATTACTTGGGTTCTAACCTGTTGCCT (site TGAAATACTAG) | 0.116 |
| TGAATTACTTGGGTTCTAACCTGTTGCCT (site TGAACTACTAG) | 0.108 |
| TGAATTACTTGGGTTCTAACCTGTTGCCT (site TGAAGTACTAG) | 0.033 |
| TGAATTACTTGGGTTCTAACCTGTTGCCT (site TGAATTACTAG) | 0.102 |
| TGACGTCCTTGGGTTCTAACCTGTTGCCT (site TGACGTCCTAA) | 0.455 |
| TGACGTCCTTGGGTTCTAACCTGTTGCCT (site TGACGTCCTAC) | 0.315 |
| TGACGTCCTTGGGTTCTAACCTGTTGCCT (site TGACGTCCTAG) | 0.253 |
| TGACGTCCTTGGGTTCTAACCTGTTGCCT (site TGACGTCCTAT) | 0.057 |
| TGACGTCCTTGGGTTCTAACCTGTTGCGT (site TGACGTCCTAA) | 0.0894 |
| TGACGTCCTTGGGTTCTAACCTGTTGCGT (site TGACGTCCTAC) | 1.72 |
| TGACGTCCTTGGGTTCTAACCTGTTGCGT (site TGACGTCCTAG) | 0.0763 |
| TGACGTCCTTGGGTTCTAACCTGTTGCGT (site TGACGTCCTAT) | 0.286 |
| TGACGTTCTTGGGTTCTAACCTGTTGCCT (site TGACCTTCTAG) | 0.189 |
| TGACGTTCTTGGGTTCTAACCTGTTGCCT (site TGACGTTCTAG) | 0.313 |
| TGAGAGACTTGGGTTCTAACCTGTTGCGT (site ATGAGTCCTTT) | 0.0989 |

| Sequence | recombinant barcode read abundance (log10) |
| --- | --- |
| TGAGAGACTTGGGTTCTAACCTGTTGCGT (site TGAGAGACTAC) | 2.94 |
| TGAGGTGCTTGGGTTCTAACCTGTTGCCT (site GGAGGGGCTAG) | 0.193 |
| TGAGGTGCTTGGGTTCTAACCTGTTGCCT (site TGAGGTGCTAG) | 0.818 |
| TGATCCACTTGGGTTCTAACCTGTTGCCT (site AGATCCACTAG) | 0.0667 |
| TGATCCACTTGGGTTCTAACCTGTTGCCT (site CGATCCACTAG) | 0.0881 |
| TGATCCACTTGGGTTCTAACCTGTTGCCT (site GGATCCACTAG) | 0.0751 |
| TGATCCACTTGGGTTCTAACCTGTTGCCT (site TGATCCACTAG) | 0.596 |
| TGATCTACTTGGGTTCTAACCTGTTGCTT (site TGATCTACTAA) | 0.0729 |
| TGATCTACTTGGGTTCTAACCTGTTGCTT (site TGCTCTACTAA) | 0.0846 |
| TGATCTACTTGGGTTCTAACCTGTTGCTT (site TGGTCTACTAA) | 0.0447 |
| TGATCTACTTGGGTTCTAACCTGTTGCTT (site TGTTCTACTAA) | 0.0588 |
| TGCAAGTCTTGGGTTCTAACCTGTTGCCT (site TGCAAGTCTAG) | 0.361 |
| TGCAAGTCTTGGGTTCTAACCTGTTGCCT (site TGCGAGTCTAG) | 0.137 |
| TGCACCTCTTGGGTTCTAACCTGTTGCTA (site CAATAGACTAG) | 0.0267 |
| TGCACCTCTTGGGTTCTAACCTGTTGCTA (site TGCACCTCTTA) | 0.541 |
| TGCCAATCTTGGGTTCTAACCTGTTGCCT (site TGCCAATCTAG) | 0.242 |
| TGCCAATCTTGGGTTCTAACCTGTTGCCT (site TTCCAATCTTG) | 0.0187 |
| TGCCATCCTTGGGTTCTAACCTGTTGCAT (site AGCCATCCTAT) | 0.111 |
| TGCCATCCTTGGGTTCTAACCTGTTGCAT (site TGCCATCCTAT) | 0.544 |
| TGCCTCTCTTGGGTTCTAACCTGTTGCCT (site GGCTTCTCTAG) | 0.0915 |
| TGCCTCTCTTGGGTTCTAACCTGTTGCCT (site TGCCTCTCTAG) | 0.172 |
| TGCCTGCCTTGGGTTCTAACCTGTTGCAG (site ATAGAATCTGA) | 0.245 |

| Sequence | recombinant barcode read abundance (log10) |
| --- | --- |
| TGCCTGCCTTGGGTTCTAACCTGTTGCAG (site TGCCTGCCTCT) | 0.0105 |
| TGCGAGTCTTGGGTTCTAACCTGTTGCCT (site TGCAAGTCTAG) | 0.626 |
| TGCGAGTCTTGGGTTCTAACCTGTTGCCT (site TGCGAGTCTAG) | 1.12 |
| TGCGCCACTTGGGTTCTAACCTGTTGCCT (site TGCGCAACTAG) | 0.113 |
| TGCGCCACTTGGGTTCTAACCTGTTGCCT (site TGCGCCACTAG) | 0.517 |
| TGCGCCACTTGGGTTCTAACCTGTTGCCT (site TGCGCGACTAG) | 0.0341 |
| TGCGCCACTTGGGTTCTAACCTGTTGCCT (site TGCGCTACTAG) | 0.0797 |
| TGCGTCACTTGGGTTCTAACCTGTTGCGT (site TGCGTCACTAC) | 1.56 |
| TGCGTCACTTGGGTTCTAACCTGTTGCGT (site TGCGTTCCTAC) | 0.0906 |
| TGCGTCGCTTGGGTTCTAACCTGTTGCCT (site AGCGTCGCTAG) | 0.149 |
| TGCGTCGCTTGGGTTCTAACCTGTTGCCT (site TGCGTCGCTAG) | 0.687 |
| TGCTAAGCTTGGGTTCTAACCTGTTGCTG (site TCCTAAGCTCC) | 0.288 |
| TGCTAAGCTTGGGTTCTAACCTGTTGCTG (site TGCTAAGCTCA) | 0.16 |
| TGCTACCCTTGGGTTCTAACCTGTTGCCT (site TACTACCCTAG) | 0.81 |
| TGCTACCCTTGGGTTCTAACCTGTTGCCT (site TCCTACCCTAG) | 0.367 |
| TGCTACCCTTGGGTTCTAACCTGTTGCCT (site TGCTACCCTAG) | 0.427 |
| TGCTACCCTTGGGTTCTAACCTGTTGCCT (site TTCTACCCTAG) | 0.213 |
| TGCTGATCTTGGGTTCTAACCTGTTGCCT (site AGCTGATCTAG) | 0.114 |
| TGCTGATCTTGGGTTCTAACCTGTTGCCT (site CGCTGATCTAG) | 0.159 |
| TGCTGATCTTGGGTTCTAACCTGTTGCCT (site GGCTGATCTAG) | 0.158 |
| TGCTGATCTTGGGTTCTAACCTGTTGCCT (site TGCTGATCTAG) | 0.335 |
| TGCTGTACTTGGGTTCTAACCTGTTGCCT (site TGCTGTACTAG) | 0 |

| Sequence | recombinant barcode read abundance (log10) |
| --- | --- |
| TGCTGTACTTGGGTTCTAACCTGTTGCCT (site TGCTGTCCTAG) | 0.0484 |
| TGCTGTACTTGGGTTCTAACCTGTTGCCT (site TGCTGTGCTAG) | 0.0772 |
| TGCTGTACTTGGGTTCTAACCTGTTGCCT (site TGCTGTTCTAG) | 0.0131 |
| TGCTGTTCTTGGGTTCTAACCTGTTGCCT (site TGCTGTACTAG) | 0.0922 |
| TGCTGTTCTTGGGTTCTAACCTGTTGCCT (site TGCTGTCCTAG) | 0.212 |
| TGCTGTTCTTGGGTTCTAACCTGTTGCCT (site TGCTGTGCTAG) | 0.241 |
| TGCTGTTCTTGGGTTCTAACCTGTTGCCT (site TGCTGTTCTAG) | 0.187 |
| TGCTTACCTTGGGTTCTAACCTGTTGCCT (site AGCTTACCTAG) | 0.0889 |
| TGCTTACCTTGGGTTCTAACCTGTTGCCT (site CGCTTACCTAG) | 0.332 |
| TGCTTACCTTGGGTTCTAACCTGTTGCCT (site GGCTTACCTAG) | 0.185 |
| TGCTTACCTTGGGTTCTAACCTGTTGCCT (site TGCTTACCTAG) | 0.282 |
| TGGAAGTCTTGGGTTCTAACCTGTTGCTT (site TGAAAGCCTAA) | 0 |
| TGGAAGTCTTGGGTTCTAACCTGTTGCTT (site TGGAAGTCTAA) | 0.418 |
| TGGAATTCTTGGGTTCTAACCTGTTGCTT (site TGGAATTCTAA) | 0.0863 |
| TGGAATTCTTGGGTTCTAACCTGTTGCTT (site TGGACTTCTAA) | 0.0255 |
| TGGACCACTTGGGTTCTAACCTGTTGCCT (site TGGAACACTAG) | 0.0728 |
| TGGACCACTTGGGTTCTAACCTGTTGCCT (site TGGACCACTAG) | 0.765 |
| TGGACCACTTGGGTTCTAACCTGTTGCCT (site TGGAGCACTAG) | 0.0755 |
| TGGACCACTTGGGTTCTAACCTGTTGCCT (site TGGATCACTAG) | 0.0342 |
| TGGACTACTTGGGTTCTAACCTGTTGCTC (site CTACAACCTCT) | 0.209 |
